# Laboratory results reported in PubChem BioAssay (NCI).
#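 1) Cells in 96-well plates. 2) Compound, 48 h, 5 concentrations. 3) Linear interpolation between surrounding doses. 4) Unreached endpoint = highest concentration. GI50 marks 50% less growth. TGI is the concentration that stops growth completely.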
# Assays:
# Assay in all cases: NCI anticancer screen, dose series, 48 h
# DU-145 prostate = test system: DU-145 prostate
# SR leukemia = test system: SR leukemia
# PC-3 prostate = test system: PC-3 prostate
# MDA-MB-435 = test system: MDA-MB-435
# NCI-H460 lung = test system: NCI-H460 lung
# MCF7 breast = test system: MCF7 breast
# U251 CNS = test system: U251 CNS
# SK-MEL-5 melanoma = test system: SK-MEL-5 melanoma
# HCT-116 colon = test system: HCT-116 colon
# KM12 colon = test system: KM12 colon
# SF-539 CNS = test system: SF-539 CNS
# RPMI-8226 leukemia = test system: RPMI-8226 leukemia
# EKVX NSCLC = test system: EKVX NSCLC
# NCI-H226 lung = test system: NCI-H226 lung
# SK-MEL-28 melanoma = test system: SK-MEL-28 melanoma
# CAKI-1 renal = test system: CAKI-1 renal
# MDA-MB-231 breast = test system: MDA-MB-231 breast
# HCC-2998 colon = test system: HCC-2998 colon
# SNB-19 CNS = test system: SNB-19 CNS
# UACC-257 melanoma = test system: UACC-257 melanoma
# T-47D breast = test system: T-47D breast
# HT29 colon = test system: HT29 colon
# UACC-62 melanoma = test system: UACC-62 melanoma
# K-562 leukemia = test system: K-562 leukemia
# M14 melanoma = test system: M14 melanoma
# SK-MEL-2 melanoma = test system: SK-MEL-2 melanoma
# RXF 393 renal = test system: RXF 393 renal
# HL-60(TB) leukemia = test system: HL-60(TB) leukemia
# ACHN renal = test system: ACHN renal
# SF-268 CNS = test system: SF-268 CNS
# BT-549 breast = test system: BT-549 breast
# TK-10 renal = test system: TK-10 renal
# A549 NSCLC = test system: A549 NSCLC
# IGROV1 ovarian = test system: IGROV1 ovarian
# OVCAR-4 ovarian = test system: OVCAR-4 ovarian
# UO-31 renal = test system: UO-31 renal
# HCT-15 colon = test system: HCT-15 colon
# HOP-92 NSCLC = test system: HOP-92 NSCLC
# SW-620 colon = test system: SW-620 colon
# MALME-3M melanoma = test system: MALME-3M melanoma
# MOLT-4 leukemia = test system: MOLT-4 leukemia
# 786-0 renal = test system: 786-0 renal
# SNB-75 CNS = test system: SNB-75 CNS
# NCI-H23 lung = test system: NCI-H23 lung
# NCI/ADR-RES ovarian = test system: NCI/ADR-RES ovarian
# LOX IMVI melanoma = test system: LOX IMVI melanoma
# HOP-62 NSCLC = test system: HOP-62 NSCLC
# OVCAR-8 ovarian = test system: OVCAR-8 ovarian
# COLO 205 colon = test system: COLO 205 colon
# OVCAR-5 ovarian = test system: OVCAR-5 ovarian
# SK-OV-3 ovarian = test system: SK-OV-3 ovarian
# OVCAR-3 ovarian = test system: OVCAR-3 ovarian
# NCI-H522 lung = test system: NCI-H522 lung
# A498 renal = test system: A498 renal
# CCRF-CEM leukemia = test system: CCRF-CEM leukemia
# SN12C renal = test system: SN12C renal
# SF-295 CNS = test system: SF-295 CNS
structure (smiles),measurement,setting,value
N=C(N)c1ccc(-c2ccc(-c3ccc(F)cc3)s2)cc1,GI50,DU-145 prostate,1.63 µM
same,TGI,DU-145 prostate,2.98 µM
same,GI50,SR leukemia,0.307 µM
same,TGI,SR leukemia,> 100 µM
CC1(C)COC(c2cccc(C3=NC(C)(C)CO3)c2Br)=N1,TGI,PC-3 prostate,> 100 µM
same,TGI,MDA-MB-435,> 100 µM
same,TGI,NCI-H460 lung,> 100 µM
same,TGI,MCF7 breast,> 100 µM
same,TGI,U251 CNS,> 100 µM
same,TGI,SK-MEL-5 melanoma,> 100 µM
same,TGI,HCT-116 colon,> 100 µM
same,TGI,KM12 colon,> 100 µM
same,TGI,SF-539 CNS,> 100 µM
same,TGI,RPMI-8226 leukemia,> 100 µM
same,TGI,EKVX NSCLC,> 100 µM
same,TGI,NCI-H226 lung,> 100 µM
same,TGI,SK-MEL-28 melanoma,> 100 µM
same,TGI,CAKI-1 renal,> 100 µM
same,TGI,MDA-MB-231 breast,> 100 µM
same,TGI,HCC-2998 colon,> 100 µM
same,TGI,SNB-19 CNS,> 100 µM
same,TGI,UACC-257 melanoma,> 100 µM
same,TGI,T-47D breast,> 100 µM
same,TGI,HT29 colon,> 100 µM
same,TGI,UACC-62 melanoma,> 100 µM
same,TGI,K-562 leukemia,> 100 µM
same,TGI,M14 melanoma,> 100 µM
same,TGI,SK-MEL-2 melanoma,> 100 µM
same,TGI,RXF 393 renal,> 100 µM
same,TGI,HL-60(TB) leukemia,> 100 µM
same,TGI,ACHN renal,> 100 µM
same,TGI,SF-268 CNS,> 100 µM
same,TGI,BT-549 breast,> 100 µM
same,TGI,TK-10 renal,> 100 µM
same,TGI,A549 NSCLC,> 100 µM
same,TGI,DU-145 prostate,> 100 µM
same,TGI,IGROV1 ovarian,> 100 µM
same,TGI,OVCAR-4 ovarian,> 100 µM
same,TGI,UO-31 renal,> 100 µM
same,TGI,SR leukemia,> 100 µM
same,TGI,HCT-15 colon,> 100 µM
same,TGI,HOP-92 NSCLC,> 100 µM
same,TGI,SW-620 colon,> 100 µM
same,TGI,MALME-3M melanoma,> 100 µM
same,TGI,MOLT-4 leukemia,> 100 µM
same,TGI,786-0 renal,> 100 µM
same,TGI,SNB-75 CNS,> 100 µM
same,TGI,NCI-H23 lung,> 100 µM
same,TGI,NCI/ADR-RES ovarian,> 100 µM
same,TGI,LOX IMVI melanoma,> 100 µM
same,TGI,HOP-62 NSCLC,> 100 µM
same,TGI,OVCAR-8 ovarian,> 100 µM
same,TGI,COLO 205 colon,> 100 µM
same,TGI,OVCAR-5 ovarian,> 100 µM
COc1ccc(/C=C/c2c(C(=O)/C=C/c3ccc(Cl)cc3)c(C)nc3ccccc23)cc1,GI50,PC-3 prostate,1.96 µM
same,TGI,PC-3 prostate,5.89 µM
same,GI50,MDA-MB-435,2.12 µM
same,TGI,MDA-MB-435,4.67 µM
same,GI50,NCI-H460 lung,2.13 µM
same,TGI,NCI-H460 lung,5.61 µM
same,GI50,MCF7 breast,1.29 µM
same,TGI,MCF7 breast,4.11 µM
same,GI50,U251 CNS,1.75 µM
same,TGI,U251 CNS,3.55 µM
same,GI50,SK-MEL-5 melanoma,1.72 µM
same,TGI,SK-MEL-5 melanoma,3.11 µM
same,GI50,HCT-116 colon,0.799 µM
same,TGI,HCT-116 colon,2.19 µM
same,GI50,KM12 colon,1.73 µM
same,TGI,KM12 colon,3.56 µM
same,GI50,SF-539 CNS,1.78 µM
same,TGI,SF-539 CNS,3.27 µM
same,GI50,RPMI-8226 leukemia,1.91 µM
same,TGI,RPMI-8226 leukemia,6.77 µM
same,GI50,EKVX NSCLC,1.55 µM
same,TGI,EKVX NSCLC,3.49 µM
same,GI50,SK-OV-3 ovarian,2.82 µM
same,TGI,SK-OV-3 ovarian,11.4 µM
same,GI50,OVCAR-3 ovarian,1.62 µM
same,TGI,OVCAR-3 ovarian,3.19 µM
same,GI50,NCI-H226 lung,1.8 µM
same,TGI,NCI-H226 lung,3.72 µM
same,GI50,SK-MEL-28 melanoma,1.81 µM
same,TGI,SK-MEL-28 melanoma,3.42 µM
same,GI50,CAKI-1 renal,1.14 µM
same,TGI,CAKI-1 renal,2.62 µM
same,GI50,MDA-MB-231 breast,2.38 µM
same,TGI,MDA-MB-231 breast,7.82 µM
same,GI50,HCC-2998 colon,1.57 µM
same,TGI,HCC-2998 colon,3.06 µM
same,GI50,SNB-19 CNS,1.74 µM
same,TGI,SNB-19 CNS,3.29 µM
same,GI50,UACC-257 melanoma,2.09 µM
same,TGI,UACC-257 melanoma,4.55 µM
same,GI50,T-47D breast,1.7 µM
same,TGI,T-47D breast,5.72 µM
same,GI50,HT29 colon,1.61 µM
same,TGI,HT29 colon,6.05 µM
same,GI50,UACC-62 melanoma,1.59 µM
same,TGI,UACC-62 melanoma,3.28 µM
same,GI50,K-562 leukemia,2.19 µM
same,TGI,K-562 leukemia,> 100 µM
same,GI50,M14 melanoma,1.83 µM
same,TGI,M14 melanoma,4.15 µM
same,GI50,SK-MEL-2 melanoma,1.83 µM
same,TGI,SK-MEL-2 melanoma,4.06 µM
same,GI50,RXF 393 renal,1.78 µM
same,TGI,RXF 393 renal,3.34 µM
same,GI50,NCI-H522 lung,1.59 µM
same,TGI,NCI-H522 lung,4.62 µM
same,GI50,A498 renal,1.89 µM
same,TGI,A498 renal,3.39 µM
same,GI50,HL-60(TB) leukemia,2.15 µM
same,TGI,HL-60(TB) leukemia,5.62 µM
same,GI50,ACHN renal,1.55 µM
same,TGI,ACHN renal,2.97 µM
same,GI50,SF-268 CNS,1.98 µM
same,TGI,SF-268 CNS,4.56 µM
same,GI50,BT-549 breast,1.83 µM
same,TGI,BT-549 breast,3.8 µM
same,GI50,CCRF-CEM leukemia,2.03 µM
same,TGI,CCRF-CEM leukemia,> 100 µM
same,GI50,TK-10 renal,2.87 µM
same,TGI,TK-10 renal,4.95 µM
same,GI50,A549 NSCLC,2.69 µM
same,TGI,A549 NSCLC,9.6 µM
same,GI50,DU-145 prostate,1.69 µM
same,TGI,DU-145 prostate,3.25 µM
same,GI50,IGROV1 ovarian,0.663 µM
same,TGI,IGROV1 ovarian,2.54 µM
same,GI50,SN12C renal,2.41 µM
same,TGI,SN12C renal,6.97 µM
same,GI50,OVCAR-4 ovarian,1.75 µM
same,TGI,OVCAR-4 ovarian,3.97 µM
same,GI50,UO-31 renal,1.21 µM
same,TGI,UO-31 renal,2.47 µM
same,GI50,SR leukemia,1.37 µM
same,TGI,SR leukemia,> 100 µM
same,GI50,HCT-15 colon,1.29 µM
same,TGI,HCT-15 colon,4.13 µM
same,GI50,SF-295 CNS,1.72 µM
same,TGI,SF-295 CNS,3.61 µM
same,GI50,SW-620 colon,1.85 µM
same,TGI,SW-620 colon,6.02 µM
same,GI50,MALME-3M melanoma,1.69 µM
same,TGI,MALME-3M melanoma,3.21 µM
same,GI50,MOLT-4 leukemia,2 µM
same,TGI,MOLT-4 leukemia,> 100 µM
same,GI50,786-0 renal,1.82 µM
same,TGI,786-0 renal,3.4 µM
same,GI50,SNB-75 CNS,1.5 µM
same,TGI,SNB-75 CNS,3.14 µM
same,GI50,NCI-H23 lung,1.39 µM
same,TGI,NCI-H23 lung,3.35 µM
same,GI50,NCI/ADR-RES ovarian,2.11 µM
same,TGI,NCI/ADR-RES ovarian,5.61 µM
same,GI50,LOX IMVI melanoma,1.51 µM
same,TGI,LOX IMVI melanoma,2.9 µM
same,GI50,HOP-62 NSCLC,2.12 µM
same,TGI,HOP-62 NSCLC,4.83 µM
same,GI50,OVCAR-8 ovarian,2.43 µM
same,TGI,OVCAR-8 ovarian,9.13 µM
same,GI50,COLO 205 colon,2.13 µM
same,TGI,COLO 205 colon,5.29 µM
same,GI50,OVCAR-5 ovarian,2.08 µM
same,TGI,OVCAR-5 ovarian,4.98 µM
